Values belong to the compound of their own block, whether it stands above or below them.
Key:
[1] = biological target: T1, Estrogen receptor beta (Homo sapiens, UniProt Q92731)
[2] = biological target: T2, Estrogen receptor (Homo sapiens, UniProt P03372)
T2 sequence (P03372 whole entry): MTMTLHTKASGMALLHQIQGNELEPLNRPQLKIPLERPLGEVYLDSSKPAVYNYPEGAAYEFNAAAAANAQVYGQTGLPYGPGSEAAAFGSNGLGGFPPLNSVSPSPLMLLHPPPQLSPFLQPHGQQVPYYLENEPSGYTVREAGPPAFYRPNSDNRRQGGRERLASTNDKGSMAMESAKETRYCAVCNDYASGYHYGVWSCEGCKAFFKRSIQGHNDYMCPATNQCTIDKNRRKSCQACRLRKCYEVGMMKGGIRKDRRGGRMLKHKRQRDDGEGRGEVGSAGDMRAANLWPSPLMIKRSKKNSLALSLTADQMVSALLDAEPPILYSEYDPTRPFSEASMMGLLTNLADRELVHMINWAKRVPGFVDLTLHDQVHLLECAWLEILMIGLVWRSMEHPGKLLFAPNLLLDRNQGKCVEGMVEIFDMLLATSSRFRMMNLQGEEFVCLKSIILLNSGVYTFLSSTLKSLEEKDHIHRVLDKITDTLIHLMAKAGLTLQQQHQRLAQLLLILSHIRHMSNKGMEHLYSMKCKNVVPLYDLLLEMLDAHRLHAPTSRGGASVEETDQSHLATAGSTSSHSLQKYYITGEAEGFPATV

[3] = biological target: T2, Estrogen receptor; remark: listed apart in the source
Description: Agonist activity at estrogen receptor alpha (unknown origin) after 22 hrs by cell-based luciferase reporter gene assay

[4] = biological target: T1, Estrogen receptor beta; remark: listed apart in the source
[5] = test system: Mus musculus; experiment: Memory enhancement effect in C57BL/6 mouse assessed as time spent with moved object at 0.05 mg/kg, po administered via gavage by object recognition test; format: functional
[6] = test system: Mus musculus; experiment: Memory enhancement effect in C57BL/6 mouse assessed as time spent with moved object at 0.05 mg/kg, ip by novel object recognition test; format: functional
[7] = test system: Mus musculus; experiment: Memory enhancement effect in C57BL/6 mouse assessed as time spent with novel object at 10 pg administered as dorsal hippocampal infusion by novel object recognition test; format: functional
[8] = test system: Mus musculus; experiment: Memory enhancement effect in C57BL/6 mouse assessed as time spent with novel object at 0.05 mg/kg, po administered via gavage by novel object recognition test; format: functional
[9] = test system: Mus musculus; experiment: Memory enhancement effect in C57BL/6 mouse assessed as time spent with moved object at 10 pg administered as dorsal hippocampal infusion by novel object recognition test; format: functional
[10] = test system: Mus musculus; experiment: Memory enhancement effect in C57BL/6 mouse assessed as time spent with novel object at 0.05 mg/kg, ip by novel object recognition test; format: functional

T1 sequence (Q92731 whole entry): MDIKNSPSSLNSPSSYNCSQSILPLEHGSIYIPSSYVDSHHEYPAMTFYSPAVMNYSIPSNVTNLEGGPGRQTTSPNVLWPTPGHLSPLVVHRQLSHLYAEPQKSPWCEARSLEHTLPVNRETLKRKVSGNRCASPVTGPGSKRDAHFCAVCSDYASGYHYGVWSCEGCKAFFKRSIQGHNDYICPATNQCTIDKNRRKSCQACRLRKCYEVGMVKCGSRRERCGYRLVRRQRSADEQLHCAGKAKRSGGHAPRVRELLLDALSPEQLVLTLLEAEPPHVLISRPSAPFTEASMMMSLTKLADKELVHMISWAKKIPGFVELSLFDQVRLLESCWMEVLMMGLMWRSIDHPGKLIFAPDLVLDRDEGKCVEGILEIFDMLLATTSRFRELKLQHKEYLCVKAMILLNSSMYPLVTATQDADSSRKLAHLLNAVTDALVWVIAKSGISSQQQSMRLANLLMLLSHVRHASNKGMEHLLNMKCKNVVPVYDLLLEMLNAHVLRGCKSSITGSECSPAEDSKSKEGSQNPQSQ

EC50 [2]: > 10 µM
EC50 [3]: > 10 µM
Compound: CC1CCC(c2ccc(O)cc2)CC1 (stereo not drawn)

EC50 [1]: 7.52 µM
Compound: Oc1ccc([C@H]2CC[C@H](O)CC2)cc1

EC50 [1]: 6.29 µM
Compound: C[C@]1(O)CC[C@@H](c2ccc(O)cc2)CC1

EC50 [1]: 21 µM
Compound: C=C1CCC(c2ccc(O)c(C=O)c2)CC1

EC50 [2]: > 10 µM
EC50 [3]: > 10 µM
Compound: C=C1CCC(c2ccc(O)cc2)CC1

EC50 [1]: 0.25 µM
Compound: Oc1ccc([C@]23CC[C@H](CC2)CO3)cc1

EC50 [1]: 2.7 µM
Compound: OC[C@]1(O)CC[C@H](c2ccc(O)cc2)CC1

EC50 [4]: 1.57 µM
Compound: ON=C1CCC(c2ccc(O)cc2)CC1 (stereo not drawn)

Second part, the compound before the results:

Compound: C=C1CCC(c2ccc(O)c(/C=N/O)c2)CC1
EC50 [1]: 0.225 µM

Compound: OCC=C1CCC(c2ccc(O)cc2)CC1 (racemic)
EC50 [4]: 0.68 µM

Compound: OCCC1CCC(c2ccc(O)cc2)CC1 (stereo not drawn)
EC50 [2]: > 10 µM
EC50 [3]: > 50 µM

Compound: OCC1CC=C(c2ccc(O)cc2)CC1 (racemic)
EC50 [2]: > 10 µM
EC50 [3]: > 20 µM

Compound: O=C1CCC(c2ccc(O)cc2)CC1
EC50 [1]: 19 µM

Compound: N#CC(Cc1ccc(O)cc1)c1ccc(O)cc1 (stereo not drawn) [DIARYLPROPIONITRILE]
Time [5]: 2.76 s
Time [6]: 3.2 s
Time [7]: 2.35 s
Time [8]: 3.89 s
Time [9]: 4.5 s
Time [10]: 3.52 s

Source: ChEMBL document CHEMBL4371004, “A-C Estrogens as Potent and Selective Estrogen Receptor-Beta Agonists (SERBAs) to Enhance Memory Consolidation under Low-Estrogen Conditions” (J Med Chem, 2018)
